Non-standard residues stand in square brackets, D forms with d. Residues, ends and D or L forms follow the SMILES beside them. Gly(Nα-4-Cl-benzyl) = O=C(O)CNCc1ccc(Cl)cc1; N(4-F-Bzl)Gly = O=C(O)CNCc1ccc(F)cc1; Gly(N-(CH2)6NH2) = NCCCCCCNCC(=O)O; Gly(N-2-aminoethyl) = NCCNCC(=O)O; N(isopentyl)Gly = CC(C)CCNCC(=O)O; Nspe = C[C@H](NCC(=O)O)c1ccccc1; Nphe = O=C(O)CNCc1ccccc1; NPrGly = CCCNCC(=O)O; Nlys = NCCCCNCC(=O)O
Tests used:
Leishmania mexicana [1] = test: Antileishmanial activity against Leishmania mexicana MNYC/BZ/62/M379 promastigotes assessed as parasite viability measured after 1 hr by alamarBlue staining based fluorescence analysis; format: functional; details: MNYC/BZ/62/M379, 1 h, read-out: ED50 (the source's name)
Leishmania mexicana [2] = test: Antileishmanial activity against axenic amastigote form of Leishmania mexicana MNYC/BZ/62/M379 assessed as parasite viability measured after 1 hr by alamarBlue staining based fluorescence analysis; format: functional; details: MNYC/BZ/62/M379, 1 h, read-out: ED50 (the source's name)

## COc1ccc(CN(CC(N)=O)C(=O)CN(Cc2ccc(OC)cc2)C(=O)CN(CCCCN)C(=O)CN(Cc2ccc(OC)cc2)C(=O)CN(Cc2ccc(OC)cc2)C(=O)CNCCCCN)cc1
Leishmania mexicana [1]
  EC50: > 100 µM
Leishmania mexicana [2]
  EC50: > 100 µM

## C[C@@H](c1ccccc1)N(CC(N)=O)C(=O)CN(C(=O)CN(CCCCCCN)C(=O)CN(C(=O)CN(C(=O)CNCCCCCCN)[C@@H](C)c1ccccc1)[C@@H](C)c1ccccc1)[C@@H](C)c1ccccc1
Leishmania mexicana [1]
  EC50: > 100 µM
Leishmania mexicana [2]
  EC50: > 100 µM

## COc1ccc(CN(CC(N)=O)C(=O)CN(Cc2ccc(OC)cc2)C(=O)CN(CCCCN)C(=O)CN(Cc2ccc(OC)cc2)C(=O)CN(Cc2ccc(OC)cc2)C(=O)CN(CCCCN)C(=O)CN(Cc2ccc(OC)cc2)C(=O)CN(Cc2ccc(OC)cc2)C(=O)CNCCCCN)cc1
Leishmania mexicana [1]
  EC50: > 100 µM
Leishmania mexicana [2]
  EC50: > 100 µM

## C[C@@H](c1ccccc1)N(CC(N)=O)C(=O)CN(C(=O)CN(CCCCN)C(=O)CN(Cc1ccc(F)cc1)C(=O)CN(Cc1ccc(F)cc1)C(=O)CNCCCCN)[C@@H](C)c1ccccc1
Leishmania mexicana [1]
  EC50: > 100 µM
Leishmania mexicana [2]
  EC50: > 100 µM

## NCCCCNCC(=O)N(CC(=O)N(CC(=O)N(CCCCN)CC(=O)N(CC(=O)N(CC(=O)N(CCCCN)CC(=O)N(CC(=O)N(CC(N)=O)Cc1cccc(F)c1)Cc1cccc(F)c1)Cc1cccc(F)c1)Cc1cccc(F)c1)Cc1cccc(F)c1)Cc1cccc(F)c1
Leishmania mexicana [1]
  EC50: 17 µM
Leishmania mexicana [2]
  EC50: > 100 µM

## COc1ccc(CN(CC(N)=O)C(=O)CN(Cc2ccc(OC)cc2)C(=O)CN(CCCCN)C(=O)CN(Cc2ccc(OC)cc2)C(=O)CN(Cc2ccc(OC)cc2)C(=O)CN(CCCCN)C(=O)CN(Cc2ccc(OC)cc2)C(=O)CN(Cc2ccc(OC)cc2)C(=O)CN(CCCCN)C(=O)CN(Cc2ccc(OC)cc2)C(=O)CN(Cc2ccc(OC)cc2)C(=O)CNCCCCN)cc1
Leishmania mexicana [1]
  EC50: 42 µM
Leishmania mexicana [2]
  EC50: > 100 µM

## NCCCCNCC(=O)N(CC(=O)N(CC(=O)N(CCCCN)CC(=O)N(CC(=O)N(CC(=O)N(CCCCN)CC(=O)N(CC(=O)N(CC(N)=O)Cc1ccccc1)Cc1ccccc1)Cc1ccccc1)Cc1ccccc1)Cc1ccccc1)Cc1ccccc1
Leishmania mexicana [1]
  EC50: > 100 µM
Leishmania mexicana [2]
  EC50: > 100 µM

## C[C@@H](c1ccccc1)N(CC(N)=O)C(=O)CN(C(=O)CN(CCN)C(=O)CN(C(=O)CN(C(=O)CNCCN)[C@@H](C)c1ccccc1)[C@@H](C)c1ccccc1)[C@@H](C)c1ccccc1
Leishmania mexicana [1]
  EC50: > 100 µM
Leishmania mexicana [2]
  EC50: > 100 µM

## C[C@@H](c1ccccc1)N(CC(N)=O)C(=O)CN(Cc1ccc(F)cc1)C(=O)CN(CCCCN)C(=O)CN(C(=O)CN(Cc1ccc(F)cc1)C(=O)CNCCCCN)[C@@H](C)c1ccccc1
Leishmania mexicana [1]
  EC50: > 100 µM
Leishmania mexicana [2]
  EC50: > 100 µM

## NCCCCNCC(=O)N(CC(=O)N(CC(=O)N(CCCCN)CC(=O)N(CC(=O)N(CC(=O)N(CCCCN)CC(=O)N(CC(=O)N(CC(=O)N(CCCCN)CC(=O)N(CC(=O)N(CC(N)=O)Cc1cccc(F)c1)Cc1cccc(F)c1)Cc1cccc(F)c1)Cc1cccc(F)c1)Cc1cccc(F)c1)Cc1cccc(F)c1)Cc1cccc(F)c1)Cc1cccc(F)c1
Leishmania mexicana [1]
  EC50: 14 µM
Leishmania mexicana [2]
  EC50: 69 µM

## NCCCCNCC(=O)N(CC(=O)N(CC(=O)N(CCCCN)CC(=O)N(CC(=O)N(CC(N)=O)Cc1cccc(F)c1)Cc1cccc(F)c1)Cc1cccc(F)c1)Cc1cccc(F)c1
Leishmania mexicana [1]
  EC50: > 100 µM
Leishmania mexicana [2]
  EC50: > 100 µM

## NCCNCC(=O)N(CC(=O)N(CC(=O)N(CCN)CC(=O)N(CC(=O)N(CC(N)=O)Cc1ccccc1)Cc1ccccc1)Cc1ccccc1)Cc1ccccc1 (H-[Gly(N-2-aminoethyl)][Nphe][Nphe][Gly(N-2-aminoethyl)][Nphe][Nphe]-NH2)
Leishmania mexicana [1]
  EC50: > 100 µM
Leishmania mexicana [2]
  EC50: > 100 µM

## NCCNCC(=O)N(CC(=O)N(CC(=O)N(CCN)CC(=O)N(CC(=O)N(CC(=O)N(CCN)CC(=O)N(CC(=O)N(CC(N)=O)Cc1ccccc1)Cc1ccccc1)Cc1ccccc1)Cc1ccccc1)Cc1ccccc1)Cc1ccccc1 (H-[Gly(N-2-aminoethyl)][Nphe][Nphe][Gly(N-2-aminoethyl)][Nphe][Nphe][Gly(N-2-aminoethyl)][Nphe][Nphe]-NH2)
Leishmania mexicana [1]
  EC50: > 100 µM
Leishmania mexicana [2]
  EC50: > 100 µM

## NCCCCCCNCC(=O)N(CC(=O)N(CC(=O)N(CCCCCCN)CC(=O)N(CC(=O)N(CC(N)=O)Cc1ccccc1)Cc1ccccc1)Cc1ccccc1)Cc1ccccc1 (H-[Gly(N-(CH2)6NH2)][Nphe][Nphe][Gly(N-(CH2)6NH2)][Nphe][Nphe]-NH2)
Leishmania mexicana [1]
  EC50: > 100 µM
Leishmania mexicana [2]
  EC50: > 100 µM

## NCCCCCCNCC(=O)N(CC(=O)N(CC(=O)N(CCCCCCN)CC(=O)N(CC(=O)N(CC(=O)N(CCCCCCN)CC(=O)N(CC(=O)N(CC(N)=O)Cc1ccccc1)Cc1ccccc1)Cc1ccccc1)Cc1ccccc1)Cc1ccccc1)Cc1ccccc1 (H-[Gly(N-(CH2)6NH2)][Nphe][Nphe][Gly(N-(CH2)6NH2)][Nphe][Nphe][Gly(N-(CH2)6NH2)][Nphe][Nphe]-NH2)
Leishmania mexicana [1]
  EC50: > 100 µM
Leishmania mexicana [2]
  EC50: > 100 µM

## NCCCCCCNCC(=O)N(CC(=O)N(CC(=O)N(CCCCCCN)CC(=O)N(CC(=O)N(CC(=O)N(CCCCCCN)CC(=O)N(CC(=O)N(CC(=O)N(CCCCCCN)CC(=O)N(CC(=O)N(CC(N)=O)Cc1ccccc1)Cc1ccccc1)Cc1ccccc1)Cc1ccccc1)Cc1ccccc1)Cc1ccccc1)Cc1ccccc1)Cc1ccccc1 (H-[Gly(N-(CH2)6NH2)][Nphe][Nphe][Gly(N-(CH2)6NH2)][Nphe][Nphe][Gly(N-(CH2)6NH2)][Nphe][Nphe][Gly(N-(CH2)6NH2)][Nphe][Nphe]-NH2)
Leishmania mexicana [1]
  EC50: 21 µM
Leishmania mexicana [2]
  EC50: > 100 µM

## C[C@@H](c1ccccc1)N(CC(N)=O)C(=O)CN(C(=O)CN(CCCCCCN)C(=O)CN(C(=O)CN(C(=O)CN(CCCCCCN)C(=O)CN(C(=O)CN(C(=O)CNCCCCCCN)[C@@H](C)c1ccccc1)[C@@H](C)c1ccccc1)[C@@H](C)c1ccccc1)[C@@H](C)c1ccccc1)[C@@H](C)c1ccccc1 (H-[Gly(N-(CH2)6NH2)][Nspe][Nspe][Gly(N-(CH2)6NH2)][Nspe][Nspe][Gly(N-(CH2)6NH2)][Nspe][Nspe]-NH2)
Leishmania mexicana [1]
  EC50: 25 µM
Leishmania mexicana [2]
  EC50: > 100 µM

## C[C@@H](c1ccccc1)N(CC(N)=O)C(=O)CN(C(=O)CN(CCCCCCN)C(=O)CN(C(=O)CN(C(=O)CN(CCCCCCN)C(=O)CN(C(=O)CN(C(=O)CN(CCCCCCN)C(=O)CN(C(=O)CN(C(=O)CNCCCCCCN)[C@@H](C)c1ccccc1)[C@@H](C)c1ccccc1)[C@@H](C)c1ccccc1)[C@@H](C)c1ccccc1)[C@@H](C)c1ccccc1)[C@@H](C)c1ccccc1)[C@@H](C)c1ccccc1 (H-[Gly(N-(CH2)6NH2)][Nspe][Nspe][Gly(N-(CH2)6NH2)][Nspe][Nspe][Gly(N-(CH2)6NH2)][Nspe][Nspe][Gly(N-(CH2)6NH2)][Nspe][Nspe]-NH2)
Leishmania mexicana [1]
  EC50: 11 µM
Leishmania mexicana [2]
  EC50: > 100 µM

## NCCCCNCC(=O)N(CC(=O)N(CC(=O)N(CCCCN)CC(=O)N(CC(=O)N(CC(N)=O)Cc1ccc(Cl)cc1)Cc1ccc(Cl)cc1)Cc1ccc(Cl)cc1)Cc1ccc(Cl)cc1 (H-[Nlys][Gly(Nα-4-Cl-benzyl)][Gly(Nα-4-Cl-benzyl)][Nlys][Gly(Nα-4-Cl-benzyl)][Gly(Nα-4-Cl-benzyl)]-NH2)
Leishmania mexicana [1]
  EC50: 29 µM
Leishmania mexicana [2]
  EC50: > 100 µM

## NCCCCNCC(=O)N(CC(=O)N(CC(=O)N(CCCCN)CC(=O)N(CC(=O)N(CC(=O)N(CCCCN)CC(=O)N(CC(=O)N(CC(N)=O)Cc1ccc(Cl)cc1)Cc1ccc(Cl)cc1)Cc1ccc(Cl)cc1)Cc1ccc(Cl)cc1)Cc1ccc(Cl)cc1)Cc1ccc(Cl)cc1 (H-[Nlys][Gly(Nα-4-Cl-benzyl)][Gly(Nα-4-Cl-benzyl)][Nlys][Gly(Nα-4-Cl-benzyl)][Gly(Nα-4-Cl-benzyl)][Nlys][Gly(Nα-4-Cl-benzyl)][Gly(Nα-4-Cl-benzyl)]-NH2)
Leishmania mexicana [1]
  EC50: 22 µM
Leishmania mexicana [2]
  EC50: 85 µM

## NCCCCNCC(=O)N(CC(=O)N(CC(=O)N(CCCCN)CC(=O)N(CC(=O)N(CC(=O)N(CCCCN)CC(=O)N(CC(=O)N(CC(=O)N(CCCCN)CC(=O)N(CC(=O)N(CC(N)=O)Cc1ccc(Cl)cc1)Cc1ccc(Cl)cc1)Cc1ccc(Cl)cc1)Cc1ccc(Cl)cc1)Cc1ccc(Cl)cc1)Cc1ccc(Cl)cc1)Cc1ccc(Cl)cc1)Cc1ccc(Cl)cc1 (H-[Nlys][Gly(Nα-4-Cl-benzyl)][Gly(Nα-4-Cl-benzyl)][Nlys][Gly(Nα-4-Cl-benzyl)][Gly(Nα-4-Cl-benzyl)][Nlys][Gly(Nα-4-Cl-benzyl)][Gly(Nα-4-Cl-benzyl)][Nlys][Gly(Nα-4-Cl-benzyl)][Gly(Nα-4-Cl-benzyl)]-NH2)
Leishmania mexicana [1]
  EC50: 28 µM
Leishmania mexicana [2]
  EC50: 44 µM

## NCCCCNCC(=O)N(CC(=O)N(CC(=O)N(CCCCN)CC(=O)N(CC(=O)N(CC(N)=O)Cc1ccc(F)cc1)Cc1ccc(F)cc1)Cc1ccc(F)cc1)Cc1ccc(F)cc1 (H-[Nlys][N(4-F-Bzl)Gly][N(4-F-Bzl)Gly][Nlys][N(4-F-Bzl)Gly][N(4-F-Bzl)Gly]-NH2)
Leishmania mexicana [1]
  EC50: > 100 µM
Leishmania mexicana [2]
  EC50: > 100 µM

## NCCCCNCC(=O)N(CC(=O)N(CC(=O)N(CCCCN)CC(=O)N(CC(=O)N(CC(=O)N(CCCCN)CC(=O)N(CC(=O)N(CC(N)=O)Cc1ccc(F)cc1)Cc1ccc(F)cc1)Cc1ccc(F)cc1)Cc1ccc(F)cc1)Cc1ccc(F)cc1)Cc1ccc(F)cc1 (H-[Nlys][N(4-F-Bzl)Gly][N(4-F-Bzl)Gly][Nlys][N(4-F-Bzl)Gly][N(4-F-Bzl)Gly][Nlys][N(4-F-Bzl)Gly][N(4-F-Bzl)Gly]-NH2)
Leishmania mexicana [1]
  EC50: 19 µM
Leishmania mexicana [2]
  EC50: > 100 µM

## NCCCCNCC(=O)N(CC(=O)N(CC(=O)N(CCCCN)CC(=O)N(CC(=O)N(CC(=O)N(CCCCN)CC(=O)N(CC(=O)N(CC(=O)N(CCCCN)CC(=O)N(CC(=O)N(CC(N)=O)Cc1ccc(F)cc1)Cc1ccc(F)cc1)Cc1ccc(F)cc1)Cc1ccc(F)cc1)Cc1ccc(F)cc1)Cc1ccc(F)cc1)Cc1ccc(F)cc1)Cc1ccc(F)cc1 (H-[Nlys][N(4-F-Bzl)Gly][N(4-F-Bzl)Gly][Nlys][N(4-F-Bzl)Gly][N(4-F-Bzl)Gly][Nlys][N(4-F-Bzl)Gly][N(4-F-Bzl)Gly][Nlys][N(4-F-Bzl)Gly][N(4-F-Bzl)Gly]-NH2)
Leishmania mexicana [1]
  EC50: 15 µM
Leishmania mexicana [2]
  EC50: 75 µM

## CC(C)CCN(CC(=O)N(CC(N)=O)[C@@H](C)c1ccccc1)C(=O)CN(CCCCN)C(=O)CN(C(=O)CN(CCC(C)C)C(=O)CNCCCCN)[C@@H](C)c1ccccc1 (H-[Nlys][N(isopentyl)Gly][Nspe][Nlys][N(isopentyl)Gly][Nspe]-NH2)
Leishmania mexicana [1]
  EC50: > 100 µM
Leishmania mexicana [2]
  EC50: > 100 µM

## CCCN(CC(=O)N(CC(N)=O)[C@@H](C)c1ccccc1)C(=O)CN(CCCCN)C(=O)CN(C(=O)CN(CCC)C(=O)CNCCCCN)[C@@H](C)c1ccccc1 (H-[Nlys][NPrGly][Nspe][Nlys][NPrGly][Nspe]-NH2)
Leishmania mexicana [1]
  EC50: > 100 µM
Leishmania mexicana [2]
  EC50: > 100 µM

From ChEMBL document CHEMBL3817808, “Enlarging the chemical space of anti-leishmanials: a structureactivity relationship study of peptoids against Leishmania mexicana, a causative agent of cutaneous leishmaniasis” (Medchemcomm, 2016)
